Results reported in PMC9322451 (Clinical Pharmacology in Drug Development, 2022).
Read-outs that look alike come from different tables or passages of the source.

Columns and labels:
[1] = Phase 1 part A: PK after single and multiple once-daily oral doses; format: in vivo, human; conditions: for AUC / AUC(0-inf) / AUC(0-t) / Cmax / half-life / Tmax: human, plasma, po; for AUC / AUC(0-inf) / AUC(0-t) / Cmax / half-life: mean (CV%); for half-life: read-out: t1/2 (converted); for Tmax: median (range), read-out: Tmax
Method: The study was conducted sequentially in 2 parts. […] Eligible participants were admitted to the clinical unit for single‐dose evaluation from days −2 to 2 and from days 29 to 31 for steady‐state PK and safety evaluation. Participants self‐administered daily doses after an overnight fast of at least 10 hours on days 4 to 30, with outpatient visits on days 3, 4, 7, 14, 21, 32, 33, and 61 (Figure S1).
For part A, blood samples for PK assessments were collected following administration on days 1 and 30 at 0 (predose), 0.5, 0.75, 1, 1.5, 2, 3, 4, 8, 12, 24, 48, and 72 hours after dosing. In addition, predose PK samples were collected on days 4, 7, 14, and 21. PK parameters following single and multiple once‐daily dosing were evaluated using noncompartmental analysis, including the AUC over a dosing interval (AUCτ), AUC from time 0 to the last time with quantifiable concentration (AUClast), AUC from time 0 to infinite time (AUC∞), maximum plasma concentration (Cmax), minimum plasma concentration, time to maximum plasma concentration (tmax), terminal elimination half‐life (t1/2), apparent total drug clearance following oral administration (CL/F), and predose concentration.
All statistical analyses were performed using SAS version 9.3 or higher (SAS Institute Inc., Cary, North Carolina). Analysis of PK data was performed using WinNonlin Professional Software version 8.0 or higher (Certara, LP, Princeton, New Jersey). […] Categorical data were summarized by race and treatment group in terms of number of participants with data at relevant time points, frequency counts, and percentages. PK concentrations below the limit of quantification (BLQ) at time 0 on days 1 and 30 were considered 0. Postdose BLQ data were considered missing for PK parameter calculation. For mean concentrations and graphic presentation, all BLQ data were imputed as 0.

[2] = tested on: multidrug and toxin extrusion transporters; set-up: method as in unpublished data; conditions: ref unpublished data, read-out: half maximal inhibitory concentration; cited from earlier work
[3] = 10 mg, Day 30, 10 mg once daily, Japanese
[4] = 10 mg, Day 30, 10 mg once daily, White
[5] = 25 mg, Day 30, 25 mg once daily, Japanese
[6] = 25 mg, Day 30, 25 mg once daily, White
[7] = 40 mg, Day 30, 40 mg once daily, Japanese
[8] = 40 mg, Day 30, 40 mg once daily, White

Cn1c(=O)oc2ccc(-c3ccc(C[C@@H](C#N)NC(=O)[C@@H]4CNCCCO4)cc3)cc21 [Brensocatib]
AUC [1, 3]: 1050 ng·h/mL
AUC(0-inf) [1, 3]: 1980 ng·h/mL
AUC(0-t) [1, 3]: 1730 ng·h/mL
Cmax [1, 3]: 80.5 ng/mL
half-life [1, 3]: 22.5 h
Tmax [1, 3]: 1.26 h
AUC [1, 4]: 1180 ng·h/mL
AUC(0-inf) [1, 4]: 2540 ng·h/mL
AUC(0-t) [1, 4]: 2100 ng·h/mL
Cmax [1, 4]: 89.5 ng/mL
half-life [1, 4]: 28.1 h
Tmax [1, 4]: 1.02 h
AUC ([1]; 25 mg, Day 1, 25 mg, Japanese): 2010 ng·h/mL
AUC(0-inf) ([1]; 25 mg, Day 1, 25 mg, Japanese): 3390 ng·h/mL
AUC(0-t) ([1]; 25 mg, Day 1, 25 mg, Japanese): 3040 ng·h/mL
Cmax ([1]; 25 mg, Day 1, 25 mg, Japanese): 209 ng/mL
half-life ([1]; 25 mg, Day 1, 25 mg, Japanese): 21.7 h
Tmax ([1]; 25 mg, Day 1, 25 mg, Japanese): 1.5 h
AUC ([1]; 25 mg, Day 1, 25 mg, White): 1720 ng·h/mL
AUC(0-inf) ([1]; 25 mg, Day 1, 25 mg, White): 3200 ng·h/mL
AUC(0-t) ([1]; 25 mg, Day 1, 25 mg, White): 2810 ng·h/mL
Cmax ([1]; 25 mg, Day 1, 25 mg, White): 161 ng/mL
half-life ([1]; 25 mg, Day 1, 25 mg, White): 24.5 h
Tmax ([1]; 25 mg, Day 1, 25 mg, White): 1.35 h
AUC [1, 5]: 4170 ng·h/mL
AUC(0-inf) [1, 5]: 7890 ng·h/mL
AUC(0-t) [1, 5]: 6890 ng·h/mL
Cmax [1, 5]: 301 ng/mL
half-life [1, 5]: 23.3 h
Tmax [1, 5]: 1.75 h
AUC [1, 6]: 3870 ng·h/mL
AUC(0-inf) [1, 6]: 8160 ng·h/mL
AUC(0-t) [1, 6]: 6720 ng·h/mL
Cmax [1, 6]: 265 ng/mL
half-life [1, 6]: 28.6 h
Tmax [1, 6]: 1.02 h
AUC ([1]; 40 mg, Day 1, 40 mg, Japanese): 2660 ng·h/mL
AUC(0-inf) ([1]; 40 mg, Day 1, 40 mg, Japanese): 4580 ng·h/mL
AUC(0-t) ([1]; 40 mg, Day 1, 40 mg, Japanese): 4040 ng·h/mL
Cmax ([1]; 40 mg, Day 1, 40 mg, Japanese): 245 ng/mL
half-life ([1]; 40 mg, Day 1, 40 mg, Japanese): 23.2 h
Tmax ([1]; 40 mg, Day 1, 40 mg, Japanese): 1.5 h
AUC ([1]; 40 mg, Day 1, 40 mg, White): 3420 ng·h/mL
AUC(0-inf) ([1]; 40 mg, Day 1, 40 mg, White): 5930 ng·h/mL
AUC(0-t) ([1]; 40 mg, Day 1, 40 mg, White): 5300 ng·h/mL
Cmax ([1]; 40 mg, Day 1, 40 mg, White): 328 ng/mL
half-life ([1]; 40 mg, Day 1, 40 mg, White): 22.1 h
Tmax ([1]; 40 mg, Day 1, 40 mg, White): 1.27 h
AUC [1, 7]: 4010 ng·h/mL
AUC(0-inf) [1, 7]: 7110 ng·h/mL
AUC(0-t) [1, 7]: 6400 ng·h/mL
Cmax [1, 7]: 334 ng/mL
half-life [1, 7]: 21.9 h
Tmax [1, 7]: 1.03 h
AUC [1, 8]: 6470 ng·h/mL
AUC(0-inf) [1, 8]: 12200 ng·h/mL
AUC(0-t) [1, 8]: 10600 ng·h/mL
Cmax [1, 8]: 467 ng/mL
half-life [1, 8]: 23.6 h
Tmax [1, 8]: 1.49 h
accumulation in maximum plasma concentration and AUC at steady state ([1]; once-daily dosing): ≈ 2 fold
Dose‐normalized Cmax lower in Japanese than in White participants ([1]; pooled dose groups): 19.1%
dose‐normalized AUCs lower in Japanese than in White participants ([1]; pooled dose groups): ≈ 25.6%
IC50 [2]: > 11 µM
